# Patent US8187882B2, “Multiple shoot proliferation and regeneration system for plants” (Monsanto Technology LLC, priority 2001, dated 2012)
# Structures can show the parent of a compound that is named as a salt.
# Columns and labels:
# [1] = tested on: DP50 cotton zygotic embryo explants; assay: Relative activity of different formulations of dikegulac on DP50 cotton zygotic embryo explants; assay type: cell-based; conditions: cv DP50
# Method: Any common plant tissue culture media can be used, including, but not limited to, modified LP medium, DKW medium, GD1 medium, MS/B5 medium, or WPM medium. Embryo axes should be placed apical end up and basal end into the medium so that the radicle is beneath the medium surface. The explants are cultured axenically at approximately 25-28° C. under fluorescent lighting at about 10-50 μE PAR for a 16-hour photoperiod. Typically it takes 5-10 weeks for multiple shoots in cotton to develop to a useful size. Table 4 is a comparison of many different formulations of dikegulac.
# cotton embryos = assay: Multiple shoot formation from cotton embryos cultured on varying levels of dikegulac with 1 mg/L IAA and 1 mg/L BAP; assay type: cell-based
# Method: Tissue culture: Embryo explants are cultured in media in a suitable culture vessel containing 500 mg/L sodium dikegulac (2,3:4,6-diisopropylidene-2-keto-1-gulonic acid), 1 mg/L IAA (indole-3-acetic acid), and 1 mg/L BA (N-6-benzyladenine) (herein after referred to as DIB media). Any common plant tissue culture media can be used, including, but not limited to, modified LP medium, DKW medium, GD1 medium, MS/B5 medium, or WPM medium. Embryo axes should be placed apical end up and basal end into the medium so that the radicle is beneath the medium surface. The explants are cultured axenically at approximately 25-28° C. under fluorescent lighting at about 10-50 μE PAR for a 16-hour photoperiod. Typically it takes 5-10 weeks for multiple shoots in cotton to develop to a useful size. Experiments were done to determine if the form of the dikegulac is important and to determine a minimum optimum level of dikegulac needed for multiple shoot formation. […] What is not captured in the numerical data in Table 3 is the overall phenotypic response of the cultures. The explants cultured on the MS/B5 medium contained a lot of callus tissue at the base and the cultures were yellowing. The cultures on GD1 contained only a minimal amount of callus but the yellowing of the regenerating tissues was present.
# cotton plants = assay: Morphology and fertility of cotton plants grown from elongated, rooted shoots produced with dikegulac; assay type: in vivo
# Text: Elongation and rooting After multiple shoots are produced, individual shoots, epicotyls, or entire shoot clump developed on the explant are excised and subcultured on the basal medium used above (without the growth regulators, or with exogenous auxin) under the same temperature and light conditions. Table 4 is a comparison of many different formulations of dikegulac.
# cotton explants = assay: Early experiments with dikegulac sodium salt in the culture medium for cotton; assay type: cell-based; conditions: 1000 mg/L incorporated into the culture medium
# Method: Forms of dikegulac: Dikegulac comes in several forms, for example a sodium salt, Atrimmec™, and free add. Early experiments were done using 1000 mg/L of the sodium salt incorporated into the culture medium for cotton. […] Later tests reduced this to 500 mg/L for ease of shoot development. Sodium dikegulac (500 mg/L) was tested in all combinations with BAP (0, 1, and 5 mg/L) and IAA (0, 1, and 5 mg/L). For US upland cotton varieties, 500 mg/L dikegulac, 1 mg/L IAA and 1 mg/L BA is a particularly useful combination. Zeatin riboside (ZR) can be substituted for BA with good results. The cytokinin component can also be omitted with good results.
# [2] = Study 1, 500 mg/L, liquid DIB medium
# [3] = Study 1, 500 mg/L, solid DIB medium
# [4] = Study 2, 500 mg/L, solid DIB medium
# [5] = MS/B5 medium, dikegulac 200 mg/L
# [6] = MS/B5 medium, dikegulac 300 mg/L
# [7] = MS/B5 medium, dikegulac 500 mg/L
SMILES,"Extra buds per viable explant [1, 2]","No. non-viable Explants [1, 2]","Percent Responding [1, 2] [%]","Extra buds per viable explant [1, 3]","No. non-viable Explants [1, 3]","Percent Responding [1, 3] [%]","Extra buds per viable explant [1, 4]","No. non-viable Explants [1, 4]","Percent Responding [1, 4] [%]","# Responding, multiple shoots (cotton embryos; GD1 medium, dikegulac 500 mg/L)","# Responding, multiple shoots (cotton embryos; [7])","Fertility of plants developed from elongated, rooted shoots (cotton plants) [%]","Morphology of plants developed from elongated, rooted shoots (cotton plants)",further results
CC1(C)OC[C@@H]2O[C@@]3(C(=O)[O-])OC(C)(C)O[C@H]3[C@@H]2O1.[Na+] [D4043],3.9,16,84,3.4,5,92,4.1,8,83,–,–,–,–,–
CC1(C)OC[C@@H]2O[C@@]3(C(=O)[O-])OC(C)(C)O[C@H]3[C@@H]2O1.[Na+] [Q2161],3.5,20,64,2.9,9,85,–,–,–,–,–,–,–,–
CC1(C)OC[C@@H]2O[C@@]3(C(=O)[O-])OC(C)(C)O[C@H]3[C@@H]2O1.[Na+] [RJK-D],3.3,11,82,–,–,–,–,–,–,–,–,–,–,–
CC1(C)OC[C@@H]2O[C@@]3(C(=O)[O-])OC(C)(C)O[C@H]3[C@@H]2O1.[Na+] [RJK-H],–,–,–,3.7,9,85,–,–,–,–,–,–,–,"Extra buds per viable explant ([1]; Study 3, 400): 1.9; No. non-viable Explants ([1]; Study 3, 400): 20; Percent Responding ([1]; Study 3, 400): 75%; Extra buds per viable explant ([1]; Study 3, 500): 3.0; No. non-viable Explants ([1]; Study 3, 500): 17; Percent Responding ([1]; Study 3, 500): 79%; Extra buds per viable explant ([1]; Study 3, 600): 3.4; No. non-viable Explants ([1]; Study 3, 600): 24; Percent Responding ([1]; Study 3, 600): 70%; Extra buds per viable explant ([1]; Study 3, 700): 3.1; No. non-viable Explants ([1]; Study 3, 700): 33; Percent Responding ([1]; Study 3, 700): 59%"
"CC1(C)OC[C@@H]2O[C@@]3(C(=O)O)OC(C)(C)O[C@H]3[C@@H]2O1 [dikegulac (acid form), 2,3:4,6-di-o-isopropylidene-2-keto-L-gulonic add]",3.4,16,67,3.8,8,87,4.2,1,96,40/50,38/50,100,morphologically normal,"# Responding, single shoots (cotton embryos; GD1 medium, dikegulac 100 mg/L): 39/50; # Responding, multiple shoots (cotton embryos; GD1 medium, dikegulac 200 mg/L): 21/50; # Responding, single shoots (cotton embryos; GD1 medium, dikegulac 200 mg/L): 22/50; # Responding, multiple shoots (cotton embryos; GD1 medium, dikegulac 300 mg/L): 33/50; # Responding, single shoots (cotton embryos; GD1 medium, dikegulac 300 mg/L): 10/50; # Responding, multiple shoots (cotton embryos; GD1 medium, dikegulac 400 mg/L): 37/50; # Responding, single shoots (cotton embryos; MS/B5 medium, dikegulac 100 mg/L): 36/50; # Responding, multiple shoots (cotton embryos; [5]): 38/50; # Responding, single shoots (cotton embryos; [5]): 9/50; # Responding, multiple shoots (cotton embryos; [6]): 41/50; # Responding, single shoots (cotton embryos; [6]): 3/50; # Responding, multiple shoots (cotton embryos; MS/B5 medium, dikegulac 400 mg/L): 40/50"
"CC1(C)OC[C@@H]2O[C@@]3(C(=O)O)OC(C)(C)O[C@H]3[C@@H]2O1 [dikegulac (sodium salt), 2,3:4,6-diisopropylidene-2-keto-1-gulonic acid]",–,–,–,–,–,–,–,–,–,35/50,39/50,100,morphologically normal,"Response of cotton explants (cotton explants): swelling, enlarged meristems, and adventitious-like leaf primordia, but the explants did not easily grow out"
